Source: patent US20200291018A1, “TAM KINASE INHIBITORS” (SYROS PHARMACEUTICALS, INC., priority 2017, published 2020)

What was measured:
FLT3 = target: T1, FLT3 (Homo sapiens, UniProt P36888); test: TR-FRET kinase activity assay, FLT3; assay type: biochemical; details: ATP at Km, 60 minutes
T1 sequence (P36888 27-993): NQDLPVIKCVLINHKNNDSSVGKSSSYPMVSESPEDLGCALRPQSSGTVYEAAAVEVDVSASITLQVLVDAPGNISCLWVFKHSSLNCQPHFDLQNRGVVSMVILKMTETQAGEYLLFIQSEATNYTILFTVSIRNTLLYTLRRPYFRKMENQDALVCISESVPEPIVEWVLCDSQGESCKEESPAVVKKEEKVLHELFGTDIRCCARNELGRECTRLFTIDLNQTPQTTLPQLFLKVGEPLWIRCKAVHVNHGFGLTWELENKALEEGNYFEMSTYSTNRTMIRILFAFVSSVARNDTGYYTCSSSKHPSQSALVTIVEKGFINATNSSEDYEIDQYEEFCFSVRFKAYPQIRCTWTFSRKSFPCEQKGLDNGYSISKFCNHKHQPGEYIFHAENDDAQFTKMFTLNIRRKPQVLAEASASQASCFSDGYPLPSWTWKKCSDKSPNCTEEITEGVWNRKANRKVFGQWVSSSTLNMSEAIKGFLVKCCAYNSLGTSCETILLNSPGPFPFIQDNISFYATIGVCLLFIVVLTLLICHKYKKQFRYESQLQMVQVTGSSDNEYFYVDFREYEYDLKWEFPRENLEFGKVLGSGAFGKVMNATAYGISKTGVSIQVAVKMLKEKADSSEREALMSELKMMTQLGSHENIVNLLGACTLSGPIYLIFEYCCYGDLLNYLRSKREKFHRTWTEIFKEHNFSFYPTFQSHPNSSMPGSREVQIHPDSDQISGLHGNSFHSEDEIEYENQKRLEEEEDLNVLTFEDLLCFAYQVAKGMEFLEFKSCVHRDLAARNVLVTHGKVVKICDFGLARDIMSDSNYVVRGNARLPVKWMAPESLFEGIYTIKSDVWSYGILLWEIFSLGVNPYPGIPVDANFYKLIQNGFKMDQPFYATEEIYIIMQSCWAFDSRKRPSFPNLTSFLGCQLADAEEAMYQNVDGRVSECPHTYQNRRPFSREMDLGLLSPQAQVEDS
How it was run: (§1)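 Buffer 50 mM HEPES pH 7.5/10 mM MgCl2/1 mM EGTA/0.01% Brij 35/1 mM DTT, RT. Km ATP per kinase, labeled peptide, 60 min; 12.5 mM EDTA stop; Eu-Ab 30 min dark; TR-FRET → IC50.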

TYRO3 = target: T2, TYRO3 (Homo sapiens, UniProt Q06418); test: TR-FRET kinase activity assay, TYRO3; assay type: biochemical; details: ATP at Km, 60 minutes
T2 sequence (Q06418 41-890): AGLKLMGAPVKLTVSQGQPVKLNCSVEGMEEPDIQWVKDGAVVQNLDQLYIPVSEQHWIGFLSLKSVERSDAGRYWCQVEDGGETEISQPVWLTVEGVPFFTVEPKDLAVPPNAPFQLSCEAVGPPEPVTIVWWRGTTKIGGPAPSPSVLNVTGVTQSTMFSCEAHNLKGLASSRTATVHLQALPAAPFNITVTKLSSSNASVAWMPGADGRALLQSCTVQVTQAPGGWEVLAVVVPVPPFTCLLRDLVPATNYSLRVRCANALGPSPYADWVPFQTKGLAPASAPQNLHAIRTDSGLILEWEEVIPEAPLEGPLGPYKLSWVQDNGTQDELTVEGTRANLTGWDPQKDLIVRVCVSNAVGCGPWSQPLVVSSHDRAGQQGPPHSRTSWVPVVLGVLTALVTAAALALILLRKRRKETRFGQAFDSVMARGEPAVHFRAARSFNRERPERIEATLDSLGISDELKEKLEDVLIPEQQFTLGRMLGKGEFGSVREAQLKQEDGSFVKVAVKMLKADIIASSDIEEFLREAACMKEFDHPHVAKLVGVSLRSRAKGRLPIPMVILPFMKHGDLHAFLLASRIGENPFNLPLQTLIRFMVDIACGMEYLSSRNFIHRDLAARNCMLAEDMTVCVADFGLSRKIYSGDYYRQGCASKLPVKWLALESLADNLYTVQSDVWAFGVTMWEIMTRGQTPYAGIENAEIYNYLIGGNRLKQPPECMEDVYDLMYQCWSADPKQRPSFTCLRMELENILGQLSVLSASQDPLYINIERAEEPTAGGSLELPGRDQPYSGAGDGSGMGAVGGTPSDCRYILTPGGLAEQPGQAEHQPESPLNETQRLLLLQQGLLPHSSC
How it was run: as §1

IC50 (FLT3): 100 to 1000 nM
IC50 (TYRO3): ≤ 100 nM
SMILES: C[C@@H](CC(F)(F)F)Nc1ncc2c(O[C@H]3C[C@@](C)(O)C3)ncc([C@H]3CC[C@H](O)CC3)c2n1 [Compound 429]
